This is an account of results in US7371364B2, “Cyclic peptide and imaging compound compositions and uses for targeted imaging and therapy” (Board of Regents, The University of Texas System, priority 2003, dated 2008).

Positions of bridges follow the written chain, without caps; N, C: chain ends. Cy5.5 = cyanine near-infrared dye Cy5.5, conjugated via its NHS ester to the amino group

One experiment deals with MDA-MB-468 tumors. The experiment in a line: In vivo NIR fluorescent imaging with HWG imaging agent. The note with it: subcutaneous MDA-MB-468 tumors, 15 nmol per mouse. Also noted: species or system mice. The procedure:
(§1) Four to six week-old athymic nude mice (18-22 g, Harlan Sprague Dawley, Inc., Indianapolis, Ind.) were housed 5 per cage with sterilized pet chow (Harlan Sprague Dawley) and sterilized water. Animals were maintained in a pathogen-free mouse colony in the Department of Veterinary Medicine at the University of Texas M.D. Anderson Cancer Center. All experiments were performed in accordance with the guidelines of the Institutional Animal Care and Use Committee. Tumor cells were harvested near confluence by incubation with 0.05% trypsin-EDTA. Cells were pelleted by centrifugation at 450×g for 5 minutes and resuspended in sterile PBS. Cells (2-3×10^6/animal) were implanted subcutaneously into the chest wall or the hind legs of the mice. Human PC-3 prostate tumors were obtained by intratibia injection of PC-3 cells into male nude mice. Human U87 glioma tumors were obtained by intracranial injection.
(§2) In vivo fluorescence imaging was accomplished by illuminating the animal with light from a laser diode (785 nm, 80 mW for IGC; 660 nm, 35 mW for Cy 5.5 dyes) expanded to an approximate 8 cm diameter circular area. The re-emitted fluorescent light was collected by an image intensifier (model FS9910C, ITT Night Vision, Roanoke, Va.) lens-coupled to a CCD camera (model CH350, Photometrics, Tucson, Ariz.). The imaging was designed so that the field of view could be varied from 3×3 cm to over 12×12 cm by varying the image distance of the 50 mm lens used to focus the image onto the photocathode of the intensifier. The lens was fitted with a holographic notch-plus filter (785 nm center wavelength for ICG and 660 nm center wavelength for Cy5.5 dyes; Kaiser Optical Systems, Inc., Ann Arbor, Mich.) and a bandpass filter (830 nm center wavelength for ICG, 710 nm center wavelength for Cy5.5 dyes) to reject back-scattered and reflected excitation photons. Image acquisition was accomplished using V++ software (Digital Optics, Auckland, New Zealand) and obtained images were stored in uncompressed tagged image file format (tiff). Data processing and analysis was accomplished using Matlab software (The Math Works, Inc., Natick, Mass.).

The next experiment has as its system SKBr-3 tumors. The description is as above. Also noted: species or system mice. The note with it: 4 days after i.v. injection, 15 nmol per mouse. The method, then: as §1, §2
The test system of a further experiment is HT1080 tumor. The experiment is described as above. Also noted: species or system mice. The note with it: subcutaneous HT1080 tumor, 27 hours after i.v. injection, 15 nmol/mouse. The procedure:
as §1, §2

Another experiment has as its system human glioma U87 tumor. Described as above. Also noted: species or system mice. The method, then: as §1, §2
In another experiment the test system is KS1767 tumors. Described as above. The note with it: subcutaneous KS1767 tumors, 15 nmol per mouse. Also noted: species or system mice. The procedure:
as §1, §2

The test system of experiment [1] is intratibia PC-3 prostate tumors. The description is as above. Also noted: species or system mice. The procedure:
Four to six week-old athymic nude mice (18-22 g, Harlan Sprague Dawley, Inc., Indianapolis, Ind.) were housed 5 per cage with sterilized pet chow (Harlan Sprague Dawley) and sterilized water. Animals were maintained in a pathogen-free mouse colony in the Department of Veterinary Medicine at the University of Texas M.D. Anderson Cancer Center. All experiments were performed in accordance with the guidelines of the Institutional Animal Care and Use Committee. Tumor cells were harvested near confluence by incubation with 0.05% trypsin-EDTA. Cells were pelleted by centrifugation at 450×g for 5 minutes and resuspended in sterile PBS. Cells (2-3×10^6/animal) were implanted subcutaneously into the chest wall or the hind legs of the mice. Human PC-3 prostate tumors were obtained by intratibia injection of PC-3 cells into male nude mice. Human U87 glioma tumors were obtained by intracranial injection. In vivo fluorescence imaging was accomplished by illuminating the animal with light from a laser diode (785 nm, 80 mW for IGC; 660 nm, 35 mW for Cy 5.5 dyes) expanded to an approximate 8 cm diameter circular area. The re-emitted fluorescent light was collected by an image intensifier (model F[…], ITT Night Vision, Roanoke, Va.) lens-coupled to a CCD camera (model CH350, Photometrics, Tucson, Ariz.). The imaging was designed so that the field of view could be varied from 3×3 cm to over 12×12 cm by varying the image distance of the 50 mm lens used to focus the image onto the photocathode of the intensifier. The lens was fitted with a holographic notch-plus filter (785 nm center wavelength for ICG and 660 nm center wavelength for Cy5.5 dyes; Kaiser Optical Systems, Inc., Ann Arbor, Mich.) and a bandpass filter (830 nm center wavelength for ICG, 710 nm center wavelength for Cy5.5 dyes) to reject back-scattered and reflected excitation photons. Image acquisition was accomplished using V++ software (Digital Optics, Auckland, New Zealand) and obtained images were stored in uncompressed tagged image file format (tiff). […]

In the next experiment the test system is human tumor cells. The experiment in a line: In vitro tumor cell binding study (fluorescence microscopy). The class given is cell-based. The procedure: All human tumor cell-lines were obtained from American Type Culture Collection (Rockville, Md.) and were maintained at 37° C. in a humidified atmosphere containing 5% CO2 in Dulbecco's Modified Eagle's Medium/Nutrient Mixture F-12 Ham (DMEM/F12) and 10% FBS (Gibco, Grand Island, N.Y.).
Cells were seeded on cover slips in 24-well plates (Becton Dickinson Labware, Franklin Lakes, N.J.) and incubated in DMEM/F12 culture medium (0.5 ml/well) overnight. Cy5.5 and Cy5.5-HWG polypeptide imaging agents were added into each well at the indicated concentrations. For the blocking study, doxycycline was added to the culture medium followed by the addition of Cy5.5-HWG polypeptide imaging agent 1 hour later. After an incubation period of 5-60 minutes at 37° C., cells were washed twice with PBS and incubated in a solution of Sytox Green in 95% ethyl alcohol (1 μM, Molecular Probe, Eugene, Oreg.) for 15 minutes to fix and stain cell nuclei. For staining of MMP expression, cells that were pretreated with Cy5.5-HWG polypeptide and stained with Sytox Green were incubated with anti-MMP antibody (Sigma) (1 mg/ml; 1:200 dilution) for 1 hour at room temperature. The cells were then washed and incubated with Texas Red conjugated go at anti-rabbit IgG (Molecular Probe, 4 μg/ml) at room temperature for 1 hour. Cells were washed again with PBS and the cover slips were mounted for microscopic examination using a DMR microscope (Leica Microsystems, Inc., Brannockburn, Ill.). The microscope was equipped with a 75W Xenon lamp, 775 nm/845 nm, 560 nm/645 nm, and 480 nm/535 nm (Excitation/emission) filters (Chroma Technology Corp., Brattleboro, Vt.), a Hamamatsu B/W Chilled CCD camera (Hamamatsu Photonics K.K., Hamamatsu City, Japan), and Image-Pro Plus 4.5.1 software (Media Cybernetics, Silver Spring, Md.). In the multiple staining images, Cy5.5, MMPs, and Sytox Green were pseudocolored red, green, and blue, respectively.

For “Cy5.5-c(KAHWGFTLD)NH2 ({Cy5.5}-KAHWGFTLD-NH2; lactam 1-9)”, the “Visualization of tumor in NIR image” value in the experiment with MDA-MB-468 tumors is “clearly visualized”; with HT1080 tumor, “clearly visualized with minimal background signal”; with KS1767 tumors, “clearly visualized”. Besides, the “Fluorescent signal in tumor” value with SKBr-3 tumors was “strong fluorescent signal”. The “Binding and retention in the tumor (NIR image)” value in the experiment with human glioma U87 tumor (intracranial U87, tumor 3-4 mm, 12 days after inoculation, 38 hours after injection, intact animal and excised brain) is given as “clearly depicted”. Moreover, the “Visualization of small tumor in NIR image” value is recorded as “clearly visualized” in the experiment with human glioma U87 tumor (subcutaneous U87, lesion less than 2 mm, 3 days after inoculation, 24 and 48 hours after injection); “clearly visualized” in experiment [1] (intratibia PC-3, no lesion by X-ray, 3 days after inoculation, 24 and 48 hours after injection). Also, in experiment [1] (control leg, i.v. injection of imaging agent), the “Fluorescent signal in contra lateral tibia region preinjected with saline” value was “no fluorescent signal was detected”. Besides, the “Presence of tumors shown in NIR images (specificity versus scrambled peptide)” value in experiment [1] (intratibia PC-3 inoculated 3 days earlier, images 24 hours after injection) is listed as “clearly showed the presence of tumors”. Moreover, the “Binding to tumor cells” value with human tumor cells (SKBr-3, HT1080, MDA-MB-435, MDA-MB-468, U87 (PC-3 and U87 for the Tyr analogue), 37° C.) was “bound”. Moreover, the “Co-localization with MMPs (MMP-2, MMP-8, MMP-9 staining)” value in the experiment on human tumor cells (all cell lines tested) is “co-localized with MMPs”.
